Data set [1] concerns DevS201 (cytoplasmic domain of DevS sensor kinase). Briefly: DevS201 autokinase (autophosphorylation) assay, high-throughput filtration format. It is filed as biochemical, Mycobacterium tuberculosis. The note with it: for inhibition of DevS autokinase activity (in words): Pep peptides at 3 mM and 5 mM, preincubated with DevS201 (15 μM) 30 mins at 25°C, three independent experiments, poor reproducibility due to protein aggregation; for % Inhibition of autokinase activity: mean of three independent experiments, 0 = lack of inhibition.

The subject of data set [2] is sigA promoter (not regulated by DevR). It is filed as cell-based, Mycobacterium tuberculosis. The note with it: for % Inhibition of reporter activity, sigA promoter: peptide 5 mM, 0 = no detectable inhibition.
The subject of data set [3] is Rv3134c promoter (DevR-dependent). The class given is cell-based, Mycobacterium tuberculosis. The note with it: for % Inhibition of reporter activity, Rv3134c promoter: hypoxic, mean of two independent experiments; for inhibition of Rv3134c promoter activity: peptides at 2.5 and 5 mM, two independent experiments.
Data set [4] relates to CHO (Chinese hamster ovary cells). It is filed as cell-based. The note with it: MTT, 5 mM and 2.5 mM peptide, 48 h, relative to the DMSO vehicle control, duplicate values. The method, then: (§1) Figure 6 Cytotoxicity of peptides. Percentage cytotoxicity due to exposure to peptides was assessed in HepG2 and CHO cell lines using the MTT assay. The cells were exposed to DevRS A-ext and DevRS D peptides at 2.5 mM and 5 mM concentration in 96-well plate format for 48 h. Percentage cytotoxicity is shown with respect to the DMSO control as mean ± SD for duplicate values.
(§2) The cytotoxicity of DevRS1 peptide was assessed in CHO (Chinese hamster ovary cells) and HepG2 (human liver hepatocellular carcinoma) cell lines. Both the cell lines were maintained in DMEM supplemented with 10% FBS at 37°C in 5% CO2. Approximately, 10^4 cells were seeded per well in a 96-well plate and incubated at 37 °C for 12–16 h. The peptides were diluted in 125 μl DMEM and added onto cells (final volume 250 μl per well, 2.5 and 5 mM final peptide concentrations), and the plate was incubated at 37°C in 5% CO2 for 48 h. Subsequently, 20 μl of MTT (Sigma 5 μg μl^-1) was added and incubated for 4–5 h at 37°C. Following incubation, media was discarded and the formazan crystals were solubilized by adding 200 μl DMSO and the absorbance measured at A560 nm. The percentage toxicity was calculated as: […]

The test system of data set [5] is HepG2 (human liver hepatocellular carcinoma). The class given is cell-based. The note with it: HepG2 cells; MTT; 5 mM and 2.5 mM peptide; 48 h; relative to the DMSO vehicle control; duplicate values. As to the method:
as §1, §2

Another data set concerns M. tuberculosis. It is filed as cell-based, Mycobacterium tuberculosis. The note with it: aerobic cultures; with respect to the DMSO control; two independent experiments.
Data set [6] has as its system DevS ~ P to DevR phosphotransfer. Briefly: In vitro phosphotransfer assay from DevS~P to DevR. The note with it: data not shown. The class given is biochemical, Mycobacterium tuberculosis. The method, then: To study the phosphotransfer reaction, DevS201 (15 μM final concentration) was phosphorylated for 60 mins as described above. Subsequently, full-length DevR or DevRN protein (1–144 amino acid residues, 20 μM final concentration) was added to the phosphorylated DevS201 mix, and the reaction was incubated at 25°C for 2 mins. The reaction was terminated with 10 μl of 2X stop buffer (100 mM Tris-Cl, pH 6.8, 20% glycerol, 2% SDS, 280 mM β-mercaptoethanol, 0.01% bromophenol blue) and the samples were resolved on SDS-PAGE. The gel was rinsed in water and subjected to autoradiography.

The next data set relates to M. tb H37Rv. Description: REMA, aerobic Resazurin reduction assay. The class given is cell-based, Mycobacterium tuberculosis. The note with it: 64 h at 37°C, Resazurin fluorescence, two independent experiments. (In general: Resazurin is reduced to fluorescent resorufin, in cell work by metabolically active cells.)

Like-named read-outs stand apart in the source and are kept apart here.

For HNTRGEE [Pep A], in data set [1] (then ATP 1 h), the “inhibition of DevS autokinase activity (in words)” value is reported as “inhibit DevS autokinase activity to varying degrees”.
On the same count and under the same terms, with ITNPDPY [Pep D] the entry was “inhibit DevS autokinase activity to varying degrees”.
For “KDIKGME [DevRS A, DevR mimetic peptide KDIKGME]”, the results for the “% Inhibition of reporter activity, sigA promoter” value in data set [2] (aerobic) and in data set [2] (hypoxic) were 6% and ~ 14%, respectively. The results for the “% Inhibition of reporter activity, Rv3134c promoter” value in data set [3] (peptide 2.5 mM) and in data set [3] (peptide 5 mM) were 30% and ~ 45%, respectively.
Turning to SLFRDWP [Pep C], the “% Inhibition of autokinase activity” value in data set [1] (Pep peptide 5 mM) and in data set [1] (peptide 3 mM) was 0% each time. Besides, the “inhibition of DevS autokinase activity (in words)” value in data set [1] (then ATP 1 h) was “did not inhibit autokinase activity at any of the concentrations tested”.
As to TFESYSL [Pep B], the “inhibition of DevS autokinase activity (in words)” value in data set [1] (then ATP 1 h) was “inhibit DevS autokinase activity to varying degrees”.
Regarding “VRLPD [DevRS D, DevR mimetic peptide VRLPD]”, the Percentage cytotoxicity in data set [4] and in data set [5] was 20-40% each time. Moreover, the “inhibition of sigA promoter activity (in words)” value in data set [2] is listed as “did not inhibit sigA promoter activity”. Also, the “CFU: % Inhibition of Viability” value in the data set with M. tuberculosis is no more than 10%. Besides, the “inhibition of Rv3134c promoter activity” value is recorded as 20-30% in data set [3] ([…]) and roughly 40% in data set [3] (hypoxic conditions). Further, the “inhibition of phosphosignal transfer from DevS ~ P to DevR (in words)” value in data set [6] is “neither DevRS A-ext nor DevRS D inhibited this reaction”. For the same substance, in the data set with M. tb H37Rv, the “inhibition of viability, REMA” value is no more than 15%. Besides, the “inhibition of DevS autokinase activity” value in data set [1] (DevRS peptide 5 mM, preincubated with DevS201 30 mins at 25°C, then ATP 1 h, mean of two independent experiments) amounted to 37%.
